Results from article PMC11507441, “Oilseed Cakes: A Promising Source of Antioxidant, and Anti-Inflammatory Agents—Insights from Lactuca sativa” (International Journal of Molecular Sciences, 2024).

Columns and labels:
[1] = test system: carrageenan-induced paw oedema; assay: Carrageenan-induced paw oedema; format: in vivo; conditions: rat
Description: Adult albino rats 180-220 g of both sexes used in the investigation were acquired from the Mansoura University Faculty of Pharmacy's Animal House. Standard laboratory diet and water were provided, and they were housed in cages maintained at a constant temperature of 22 ± 2 °C. The Animal Care and Use Committee (MU-ACUC) of Mansoura University, Egypt, has approved all procedures involving animals with code number: […] Throughout the experiment, medications and extracts were given orally in doses of 1 mL/100 g of the rat's body weight after being solubilized in carboxymethyl cellulose (CMC) in order to create a suspension formula. In this test, rats were divided into six groups, with each group containing 5 animals. Group-1: […] Group-2: Positive control (carrageenan-induced oedema, Sigma (St. Louis, MO, USA)) without any treatment. […] Group-4: […] extract of Lactuca sativa was administered at a 2 g/kg dose. Group-5: Compound (1) is administered at a dose of 20 mg/kg. Group-6: Compound (1) at a dose of 40 mg/kg. Group-7: Combination of standard and compound (1) at doses of (10 + 20) mg/kg, respectively. […] Using a digital vernier calliper, the swelling of the paw that had been injected with carrageenan was measured prior to injection as well as 1, 2, 3, 4, and 5 h following the treatment's induction. The percentage inhibition of oedema in the test animals treated with the extract compared to the carrageenan control group was used to calculate the anti-inflammatory activity. The formula […] was used to calculate the percentage inhibition of inflammation, where “dt” represents the difference in paw volume in the drug-treated group and “dc” represents the difference in paw volume relative to the control group. Moreover, “I” represents the suppression of inflammation.

CAT = CAT activity in rat paw tissue homogenate (carrageenan model); format: in vivo; conditions: for CAT (U/gm Tissue): paw tissue 5 h after carrageenan
Description: The levels of inflammatory mediators (IL-1β, TNF-α, and PGE2) in rat paw tissue homogenate were measured using the following Kits: Rat TNF-α (Tumor Necrosis Factor Alpha) ELISA Kit from Elabscience® Company, Houston, TX, USA, Interleukin 1 Beta (IL-1b) Organism Species: Rattus norvegicus (Rat) from Cloud Clone Crop Company and Rat PGE2 (Prostaglandin E2) ELISA Kit from Fine test® company Hubei, China. In addition, oxidative stress parameters in rat paw tissue homogenate were measured using superoxide dismutase, glutathione peroxidase, and catalase Kits from the Biodiagnostic company, Birmingham, UK.
Rats were slaughtered, and their paw tissues were gathered and weighed five hours after the carrageenan was administered. The tissues underwent processing after being fixed in 10% formalin. Rat paw tissue was homogenized, and its oxidative stress indices (SOD, CAT, and GPx) as well as the levels of inflammatory mediators (IL-1β, TNF-α, and PGE2) were measured.

NC(CO)C(O)c1ccc2c(c1)OCO2 (centres unmarked) [Compound 1, 1,3-propanediol-2-amino-1-(3′,4′-methylenedioxyphenyl)]
% Inhibition (%I) of paw oedema ([1]; 1 h, dose 20 mg/kg oral): 10.25% | Increase in Paw Oedema ([1]; 1 h, dose 20 mg/kg oral): 1.05 ± 0.20 mL | % Inhibition (%I) of paw oedema ([1]; 1 h, dose 40 mg/kg oral): 16.32% | Increase in Paw Oedema ([1]; 1 h, dose 40 mg/kg oral): 0.77 ± 0.28 mL | % Inhibition (%I) of paw oedema ([1]; 2 h, dose 20 mg/kg oral): 23.51% | Increase in Paw Oedema ([1]; 2 h, dose 20 mg/kg oral): 1.81 ± 0.44 mL | % Inhibition (%I) of paw oedema ([1]; 2 h, dose 40 mg/kg oral): 27.07% | Increase in Paw Oedema ([1]; 2 h, dose 40 mg/kg oral): 1.59 ± 0.22 mL | % Inhibition (%I) of paw oedema ([1]; 3 h, dose 20 mg/kg oral): 23.77% | Increase in Paw Oedema ([1]; 3 h, dose 20 mg/kg oral): 2.26 ± 0.28 mL | % Inhibition (%I) of paw oedema ([1]; 3 h, dose 40 mg/kg oral): 26.1% | Increase in Paw Oedema ([1]; 3 h, dose 40 mg/kg oral): 2.11 ± 0.29 mL | % Inhibition (%I) of paw oedema ([1]; 4 h, dose 20 mg/kg oral): 45.36% | Increase in Paw Oedema ([1]; 4 h, dose 20 mg/kg oral): 2.18 ± 0.74 mL | % Inhibition (%I) of paw oedema ([1]; 4 h, dose 40 mg/kg oral): 55.39% | Increase in Paw Oedema ([1]; 4 h, dose 40 mg/kg oral): 1.78 ± 0.45 mL | % Inhibition (%I) of paw oedema ([1]; 5 h, dose 20 mg/kg oral): 57.63% | Increase in Paw Oedema ([1]; 5 h, dose 20 mg/kg oral): 1.75 ± 0.46 mL | % Inhibition (%I) of paw oedema ([1]; 5 h, dose 40 mg/kg oral): 63.92% | Increase in Paw Oedema ([1]; 5 h, dose 40 mg/kg oral): 1.49 ± 0.49 mL | CAT activity restored (CAT; 40 mg/kg, compared to the control group): 72.08% | CAT (U/gm Tissue) (CAT; 20 mg/kg): 1.50 ± 0.19 U/gm Tissue | CAT (U/gm Tissue) (CAT; 40 mg/kg): 2.04 ± 0.26 U/gm Tissue
